Paper PMC12114840, “Exploring the Anticancer Properties of 1,2,3-Triazole-Substituted Andrographolide Derivatives” (Pharmaceuticals, 2025)

How the values were obtained:
[1] = test system: CCD-18Co cells (non-tumorigenic colon); experiment: Sulforhodamine B (SRB) antiproliferative assay, CCD-18Co; format: cell-based; conditions: Homo sapiens, CCD-18Co non-tumorigenic, 48 h, mean ± SEM of four to six independent experiments
Description: (§1) The antiproliferative properties of andrographolide and all prepared derivatives (2–26) were evaluated against a panel of different cancer cell lines, including human pancreatic ductal adenocarcinoma (PANC-1), colorectal adenocarcinoma (HCT116), melanoma (A375), breast adenocarcinoma (MCF-7) and a non-tumorigenic colon (CCD-18Co) cell line using the sulforhodamine B assay.
(§2) Human breast adenocarcinoma MCF-7, pancreatic ductal adenocarcinoma PANC-1, melanoma A375, and non-tumorigenic colon CCD-18Co cell lines were purchased from ATCC (Rockville, MD, USA). Human colorectal adenocarcinoma HCT116 cells were kindly provided by B. Vogelstein (The Johns Hopkins Kimmel Cancer Center, Baltimore, MD, USA). Tumor cells were routinely cultured in RPMI-1640 medium with UltraGlutamine from Biowest (VWR, Carnaxide, Portugal) supplemented with 10% fetal bovine serum (FBS) from Biowest (VWR, Carnaxide, Portugal), except for the PANC-1 cells, which were grown in DMEM (4.5 g/L glucose) with stable L-glutamine and sodium pyruvate and supplemented with 10% FBS. The non-tumorigenic CCD-18Co cells were cultured in EMEM (Lonza, VWR, Carnaxide, Portugal), supplemented with 10% FBS. All cells were incubated at 37 °C in a humidified atmosphere of 5% CO2. Routine mycoplasma testing was performed using the MycoAlert™ PLUS mycoplasma detection kit (Lonza).
(§3) For the evaluation of the compound effect on cell proliferation, human cell lines were seeded in 96-well plates at a density of 5.0 × 10^3 (HCT116, MCF-7, PANC-1, A375, and CCD-18Co) cells per well, for 24 h. Cells were then treated with serial dilutions of the compound (ranging from 0.63 to 30 µM), for an additional 48 h incubation period. The growth inhibitory effects were assessed by SRB assay, as described in [58], and the half-maximal inhibitory concentration (IC50 values) were determined for each cell line using the GraphPad Prism software version 7.0 (La Jolla, CA, USA). Culture medium containing a maximum of 0.05% dimethyl sulfoxide (DMSO) was used as negative control.

[2] = test system: PANC-1 cells (pancreatic ductal adenocarcinoma); experiment: Sulforhodamine B (SRB) antiproliferative assay, PANC-1; format: cell-based, human
Description: as §1, §2, §3

[3] = test system: HCT116 cells (colorectal adenocarcinoma); experiment: Sulforhodamine B (SRB) antiproliferative assay, HCT116; format: cell-based; conditions: Homo sapiens, HCT-116, HCT116, 48 h, mean ± SEM of four to six independent experiments
Description: as §1, §2, §3

A375 cells (melanoma) = experiment: Sulforhodamine B (SRB) antiproliferative assay, A375; format: cell-based; conditions: Homo sapiens, A-375, A375, 48 h, mean ± SEM of four to six independent experiments
Description: as §1, §2, §3

PANC-1 cells = experiment: Cell cycle analysis by flow cytometry (propidium iodide); format: cell-based, human; conditions: PANC-1, 3 μM and 6 μM, 48 h
Description: To elucidate the antiproliferative activity of compound 12, cell cycle analysis was performed in the PANC-1 cancer cell line. The cell cycle is a highly controlled process where cellular DNA is replicated and then equally partitioned in two daughter cells. The cell cycle is composed of two distinct phases: the interphase, where the cell grows and undergoes three distinct periods—the G1 (pre-DNA synthesis), S (DNA synthesis), and G2 (pre-division) phases—and mitosis, where cell undergoes division. The newly formed daughter cells then enter the preparatory phases of interphase, and start the G0 phase (quiescence). […] Thus, PANC-1 cells were treated with compound 12 at 3 and 6 µM for 48 h and then analyzed by flow cytometry (Figure 1B,C).
The analyses were performed as described in the literature. In particular, 1.5 × 10^5 PANC-1 cells/well were seeded in 6-well plates and allowed to adhere overnight, followed by treatment with 3 µM and 6 µM of compound 12 for 48 h. For cell cycle analysis, cells were stained with propidium iodide (Sigma-Aldrich) and subjected to flow cytometry. Cell cycle phases were identified and quantified using the FlowJo X 10.0.7 software (Treestar, Ashland, OR, USA). For apoptosis analysis, cells were stained using the Annexin V-FITC Apoptosis Detection Kit I from BD Biosciences (Enzifarma, Porto, Portugal), according to the manufacturer’s instructions. […]

[4] = test system: MCF-7 cells (breast adenocarcinoma); experiment: Sulforhodamine B (SRB) antiproliferative assay, MCF-7; format: cell-based; conditions: Homo sapiens, MCF7, MCF-7, 48 h, mean ± SEM of four to six independent experiments
Description: as §1, §2, §3

C=C1CC[C@@H]2[C@](C)(COC(C)=O)[C@H](OC(C)=O)CC[C@@]2(C)[C@@H]1C[C@H](C1=CCOC1=O)n1cc(-c2ccc(Br)cc2)nn1 [Compound 12, (12R)-4-bromophenyl-1,2,3-triazole-3,19-diacetoxy-14-deoxy-andrographolide]
IC50 [1]: 9.6 ± 2.3 µM | IC50 ([2]; Homo sapiens, PANC-1, 48 h, SRB, mean ± SEM of four to six independent experiments): 3.4 ± 0.9 µM | IC10 ([2]; PANC-1, concentration which has no significant effect on cell proliferation): 1.35 µM | IC50 [3]: 1.7 ± 0.2 µM | IC50 (A375 cells (melanoma)): 1.7 µM | G2/M population compared to the control (PANC-1 cells): significant increase in the G2/M population | IC50 [4]: 6.8 ± 0.3 µM
